Laboratory results taken from patent US20070219248A1, “Salt of Oxalic Acid with -[4[2-(N-Methyl-N-(2-Pyridyl)-Amino)Ethoxy]Benzyl]Thiazolidin-2,4- Dione and a Method of its Preparation and its Use” (priority 2004, published 2007).
“Also recorded” adds a separate entry of the source. Structures can show the parent of a compound that is named as a salt.

Assays:
[1] = Solubility of rosiglitazone salts in 0.1 M hydrochloric acid (Example 7); format: physicochemical; details: 1 g salt
Text: Contrary to some other salts of rosiglitazone, the above-described crystalline salt of formula III is well soluble in water and in aqueous solutions of hydrochloric acid. Especially the solubility in solutions of hydrochloric acid is very important considering the acidobasic conditions in the digestive system (especially in the stomach). It offers indication of the solubility of the substance after it is digested, which is a very important factor for evaluating pharmaceutical effectiveness of the substance. A comparison of the solubility of the salt of the compound of formula III in acidic environment with some of several other rosiglitazone salts is documented in Example 7. […] However, neither the same amount of rosiglitazone hydrochloride prepared according to WO 2000/063205 nor the same amount of pharmaceutically used rosiglitazone maleate of formula II prepared according to WO 94/05659 could be dissolved under the same conditions.
Solubility was determined for crystalline rosiglitazone oxalate of chemical formula III, which was prepared by the procedure according to Example 1. 1 g of crystalline salt of formula III was dissolved under stirring and at 25° C. in 20, 30, 35 a 40 ml of a 0.1M solution of hydrochloric acid. The mixture was stirred at 25° C. for five minutes. When using 20 and 30 ml of the solvent, there was obtained no solution.

[2] = Solubility in water and aqueous hydrochloric acid, stated only in words; format: physicochemical; details: crystalline form

| Dissolution of the same amount (1 g) at the same conditions ([1]; 20 to 40 ml 0.1M hydrochloric acid, 25° C., stirred five minutes) | Dissolution after extension of the time and another dilution ([1]; extended dissolution time, further dilution with 0.1 M hydrochloric acid) | Dissolution of 1 g of salt in 20 ml of solvent ([1]; 20 ml 0.1M hydrochloric acid, 25° C., stirred five minutes) | Dissolution of 1 g of salt in 30 ml of solvent ([1]; 30 ml 0.1M hydrochloric acid, 25° C., stirred five minutes) | Dissolution of 1 g of salt in 35 ml of solvent ([1]; 35 ml 0.1M hydrochloric acid, 25° C., stirred five minutes) | Solubility in water and in aqueous solutions of hydrochloric acid [2] | SMILES | Dissolution of 1 g of salt in 40 ml of solvent ([1]; 40 ml 0.1M hydrochloric acid, 25° C., stirred five minutes) |
| --- | --- | --- | --- | --- | --- | --- | --- |
| neither dissolving | No solutions could be obtained |  |  |  |  | CN(CCOc1ccc(CC2SC(=O)NC2=O)cc1)c1ccccn1 (stereo not shown) [rosiglitazone maleate, reference compound] |  |
|  |  | no solution | no solution | cloudy solution | well soluble | CN(CCOc1ccc(CC2SC(=O)NC2=O)cc1)c1ccccn1 (stereo not shown) [III] | completely dissolved; also recorded: no cloudy solution |
